Results on 19 compounds are retold here after PubChem BioAssay AID264 (DTP/NCI, 2004).

For the assay, the system named is nude mice, LX-1 lung xenograft intrarenal, tumor weight T/C. Description: NCI In Vivo Anticancer Drug Screen. Data for tumor model Human Lung LX-1 Xenograft (intrarenal inoculation) in NU/NU Swiss (nude) mice. The note with it: endpoint: mean tumor weight change, higher = larger tumour. In a few lines: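 Antitumor effect is expressed as a ratio: the mean tumor measurement of the drug-treated group relative to that of the vehicle-dosed control group.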
On the technique in general: In xenograft studies the graft and the host belong to different species.

Where [1] appears, read: dose: 25.0 mg/kg/injection, schedule: Q01DX010 (sc), vehicle: saline.
Where [2] appears, read: dose: 50.0 mg/kg/injection, schedule: Q01DX010 (sc), vehicle: saline.
Where [3] appears, read: dose: 50.0 mg/kg/injection, schedule: Q04DX003 (sc), vehicle: saline.
Setting [4] is: dose: 200.0 mg/kg/injection, schedule: Q04DX003 (sc), vehicle: saline with Tween-80.
The mark [5] stands for this setting: dose: 400.0 mg/kg/injection, schedule: Q04DX003 (sc), vehicle: saline with Tween-80.
Where [6] appears, read: dose: 150.0 mg/kg/injection, schedule: Q04DX003 (sc), vehicle: saline.

Molecules are shown by their SMILES. Several values for one entry are separate records, joined by “and”; a condition that tells them apart may be missing. Identical values can stand only once. Records with an inconclusive call do not appear.

As to `C1CN(P2(N3CC3)=NP(N3CC3)(N3CC3)=NP(N3CC3)(N3CC3)=N2)CCO1` (stereo unspecified), the T/C is 107 % of control (dose: 6.25 mg/kg/injection, schedule: Q01DX010 (sc), vehicle: saline); 38 % of control and 43 % of control and 53 % of control (dose: 12.5 mg/kg/injection, schedule: Q01DX010 (sc), vehicle: saline); 28 % of control and 29 % of control and 31 % of control under setting [1]; 74 % of control and 82 % of control (dose: 25.0 mg/kg/injection, schedule: Q04DX003 (sc), vehicle: saline); 6 % of control and 8 % of control under setting [2]; 23 % of control and 35 % of control under setting [3]. Further, for the setting “dose: 100.0 mg/kg/injection, schedule: Q04DX003 (sc), vehicle: saline”, the T/C was 25 % of control.

For the compound `CC(C)[NH-].CC(C)[NH-].O.O.[Cl][Pt+2][Cl]`, the T/C was 62 % of control (dose: 3.12 mg/kg/injection, schedule: Q01DX010 (sc), vehicle: dextrose); 60 % of control (dose: 6.25 mg/kg/injection, schedule: Q01DX010 (sc), vehicle: dextrose); 53 % of control (dose: 12.5 mg/kg/injection, schedule: Q01DX010 (sc), vehicle: dextrose); 64 % of control (dose: 25.0 mg/kg/injection, schedule: Q01DX010 (sc), vehicle: dextrose).

As for `O=c1[nH]cnc2c1ccn2C1OC(CO)C(O)C1O` (stereo unspecified), the T/C is 88 % of control (dose: 12.5 mg/kg/injection, schedule: Q04DX003 (sc), vehicle: saline) and 47 % of control under setting [3].

Consider `C[C@]12CCC(=O)C=C1CC[C@@H]1[C@@H]2C(=O)C[C@@]2(C)[C@H]1CC[C@]2(O)C(=O)CO`, for which the T/C was 38 % of control (dose: 300.0 mg/kg/injection, schedule: Q04DX003 (sc), vehicle: Klucel (hydroxypropylcellulose) (HPC)); 34 % of control (dose: 600.0 mg/kg/injection, schedule: Q04DX003 (sc), vehicle: Klucel (hydroxypropylcellulose) (HPC)); 52 % of control (dose: 1200.0 mg/kg/injection, schedule: Q04DX003 (sc), vehicle: Klucel (hydroxypropylcellulose) (HPC)).

As for `Cc1ccc(N)c(N)c1`, the T/C was 57 % of control under setting [4]; 74 % of control under setting [5]; 57 % of control (dose: 800.0 mg/kg/injection, schedule: Q04DX003 (sc), vehicle: saline with Tween-80).

Consider `O=c1[nH]c(=O)n(C2CC(O)C(CO)O2)cc1Br` (stereo unspecified), for which the T/C reads like this: (dose: 200.0 mg/kg/injection, schedule: Q01DX010 (sc), vehicle: Klucel (hydroxypropylcellulose) (HPC)) 35 % of control; (dose: 400.0 mg/kg/injection, schedule: Q01DX010 (sc), vehicle: Klucel (hydroxypropylcellulose) (HPC)) 35 % of control; (dose: 800.0 mg/kg/injection, schedule: Q01DX010 (sc), vehicle: Klucel (hydroxypropylcellulose) (HPC)) 27 % of control.

`C1OCN2CSCC12` (stereo unspecified): the T/C runs as follows: (dose: 50.0 mg/kg/injection, schedule: Q04DX003 (sc), vehicle: saline with Tween-80) 76 % of control; (dose: 100.0 mg/kg/injection, schedule: Q04DX003 (sc), vehicle: saline with Tween-80) 103 % of control; under setting [4], 71 % of control; under setting [5], 63 % of control.

Take `C1OC1CN1CCN(CC2CO2)CC1` (stereo unspecified): where the note is “dose: 16.0 mg/kg/injection, schedule: Q01DX010 (sc), vehicle: saline”, the T/C was 27 % of control.

On to `CN(C)c1ccc(C(=C2C=CC(=[N+](C)C)C=C2)c2ccc(N(C)C)cc2)cc1` (tested in a mixture with another compound), for which the T/C is, setting by setting: (dose: 7.5 mg/kg/injection, schedule: Q04DX003 (sc), vehicle: saline with Tween-80) 76 % of control; (dose: 15.0 mg/kg/injection, schedule: Q04DX003 (sc), vehicle: saline with Tween-80) 59 % of control; (dose: 30.0 mg/kg/injection, schedule: Q04DX003 (sc), vehicle: saline with Tween-80) 98 % of control; (dose: 60.0 mg/kg/injection, schedule: Q04DX003 (sc), vehicle: saline with Tween-80) 65 % of control.

As to `C=CS(C=C)=NS(=O)(=O)c1ccc(C)cc1`, the T/C (dose: 18.75 mg/kg/injection, schedule: Q04DX003 (sc), vehicle: Klucel (hydroxypropylcellulose) (HPC)) is 108 % of control; the T/C (dose: 37.5 mg/kg/injection, schedule: Q04DX003 (sc), vehicle: Klucel (hydroxypropylcellulose) (HPC)) was 163 % of control; the T/C (dose: 75.0 mg/kg/injection, schedule: Q04DX003 (sc), vehicle: Klucel (hydroxypropylcellulose) (HPC)) was 71 % of control.

In the case of `O=C(N/N=C\c1cc(Br)cc(Br)c1O)N/N=C/c1cc(Br)cc(Br)c1O`, the T/C is, setting by setting: (dose: 50.0 mg/kg/injection, schedule: Q01DX010 (sc), vehicle: saline with Tween-80) 373 % of control; (dose: 800.0 mg/kg/injection, schedule: Q01DX010 (sc), vehicle: saline with Tween-80) 67 % of control.

As to `O=C1N[C@@H]([C@H]2CC[C@H](Cl)CN2)C(=O)N[C@H]1[C@H]1CC[C@H](Cl)CN1`, the T/C reads like this: (dose: 0.63 mg/kg/injection, schedule: Q01DX010 (sc), vehicle: water) 124 % of control; (dose: 1.25 mg/kg/injection, schedule: Q01DX010 (sc), vehicle: water) 98 % of control; (dose: 5.0 mg/kg/injection, schedule: Q01DX010 (sc), vehicle: water) 22 % of control; (dose: 5.0 mg/kg/injection, schedule: Q04DX003 (sc), vehicle: water) 70 % of control; (dose: 10.0 mg/kg/injection, schedule: Q04DX003 (sc), vehicle: water) 58 % of control.

Regarding `CCN(Cc1ccc(Cl)c(Cl)c1)c1ccc2nc(N)nc(N)c2c1C`, the T/C (dose: 37.5 mg/kg/injection, schedule: Q04DX003 (sc), vehicle: water) was 62 % of control.

Regarding `N=c1ccn2c(n1)OC1C(O)C(CO)OC12` (stereo unspecified), the T/C is, setting by setting: (dose: 37.5 mg/kg/injection, schedule: Q04DX003 (sc), vehicle: saline) 91 % of control; (dose: 75.0 mg/kg/injection, schedule: Q04DX003 (sc), vehicle: saline) 95 % of control; under setting [6], 121 % of control; (dose: 300.0 mg/kg/injection, schedule: Q04DX003 (sc), vehicle: saline) 77 % of control; (dose: 300.0 mg/kg/injection, schedule: Q04DX003 (sc), vehicle: suspension in saline) 176 % of control; (dose: 600.0 mg/kg/injection, schedule: Q04DX003 (sc), vehicle: suspension in saline) 231 % of control. The T/C is, setting by setting: (dose: 800.0 mg/kg/injection, schedule: Q04DX003 (sc), vehicle: saline) 24 % of control and 48 % of control; (dose: 1200.0 mg/kg/injection, schedule: Q04DX003 (sc), vehicle: suspension in saline) 41 % of control; (dose: 1600.0 mg/kg/injection, schedule: Q04DX003 (sc), vehicle: saline) 18 % of control and 31 % of control; (dose: 2400.0 mg/kg/injection, schedule: Q04DX003 (sc), vehicle: suspension in saline) 36 % of control; (dose: 3200.0 mg/kg/injection, schedule: Q04DX003 (sc), vehicle: saline) 6 % of control and 18 % of control.

As for `C(CC1CO1)C1CO1` (stereo unspecified), the T/C under setting [1] was 104 % of control; the T/C under setting [2] was 64 % of control; the T/C (dose: 100.0 mg/kg/injection, schedule: Q01DX010 (sc), vehicle: saline) was 42 % of control.

In the case of `CCNC(=O)[B-][N+](C)(C)C`, the T/C runs as follows: (dose: 100.0 mg/kg/injection, schedule: Q04DX003 (sc), vehicle: Klucel (hydroxypropylcellulose) (HPC)) 108 % of control; (dose: 200.0 mg/kg/injection, schedule: Q04DX003 (sc), vehicle: Klucel (hydroxypropylcellulose) (HPC)) 73 % of control; (dose: 400.0 mg/kg/injection, schedule: Q04DX003 (sc), vehicle: Klucel (hydroxypropylcellulose) (HPC)) 48 % of control.

On to `O=P(O)(NCCCl)NCCCl`, for which, under setting [6], the T/C was 33 % of control.

With `COc1cc([C@@H]2c3cc4c(c(O)c3C[C@H]3COC(=O)[C@@H]32)OCO4)cc(OC)c1O`, the T/C was 97 % of control (dose: 0.06 mg/kg/injection, schedule: Q01DX010 (sc), vehicle: saline); 91 % of control (dose: 0.12 mg/kg/injection, schedule: Q01DX010 (sc), vehicle: saline); 74 % of control (dose: 0.25 mg/kg/injection, schedule: Q01DX010 (sc), vehicle: saline); 205 % of control (dose: 0.5 mg/kg/injection, schedule: Q01DX010 (sc), vehicle: saline); 76 % of control (dose: 1.0 mg/kg/injection, schedule: Q01DX010 (sc), vehicle: saline).

Turning to `CC(=O)C1(O)Cc2c(O)c3c(c(O)c2C(OC2CC(N)C(O)C(C)O2)C1)C(=O)c1ccccc1C3=O` (stereo unspecified), the T/C (dose: 0.5 mg/kg/injection, schedule: Q04DX003 (sc), vehicle: water) is 120 % of control.
